Test systems include OVCAR-8; NCI-H460; UACC-62; 786-0; A498; SF-539; BT-549; NCI-H226; SR; HOP-62; Malme-3M; EKVX; UO-31; M14; NCI-H23; PC-3; ACHN; MDA-MB-231; OVCAR-4; CCRF-CEM.
Test in all cases: NCI-60 cell line screen, 48 h

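Assay format: 96-well plates, 48-hour exposure. Abbreviation: GI50, concentration required for 50% inhibition of growth.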 Activity calls are given as the source filed them. No stated cut-off is given here; in the data, active = GI50 up to about 1.1 µM and inactive = higher.

As for `O=C(O)CN(CC(=O)O)c1ccccc1`, the GI50 in the assay with OVCAR-8 was > 100 µM (inactive); with NCI-H460, 71.1 µM (inactive); with UACC-62, 32 µM (inactive); in the assay with 786-0 it was > 100 µM (inactive); in the assay with A498 it was > 100 µM (inactive); with SF-539 it was > 100 µM (inactive). Moreover, the GI50 is > 100 µM (inactive) in the assay with BT-549; > 100 µM (inactive) in the assay with NCI-H226; > 100 µM (inactive) in the assay on SR; > 100 µM (inactive) in the assay on HOP-62; 45.8 µM (inactive) in the assay with Malme-3M; > 100 µM (inactive) with EKVX. Also, the GI50 with UO-31 is > 100 µM (inactive); in the assay on M14, > 100 µM (inactive); in the assay with NCI-H23, 75.3 µM (inactive); in the assay with PC-3, 56 µM (inactive); in the assay on ACHN, > 100 µM (inactive); with MDA-MB-231, 92.3 µM (inactive). In addition, the results for the GI50 in the assay on OVCAR-4 and in the assay on CCRF-CEM were 81.7 µM (inactive) and 34 µM (inactive), respectively.
In the case of `N=C(N)NNC(=O)C(=O)O`, the GI50 in the assay with OVCAR-8, in the assay on NCI-H460, in the assay with UACC-62, in the assay on 786-0, with A498 and with SF-539 was > 100 µM (inactive) each time. Besides, the GI50 in the assay with BT-549, in the assay on NCI-H226, in the assay with SR, in the assay on HOP-62, with Malme-3M and in the assay on EKVX was > 100 µM (inactive) throughout. Besides, the GI50 in the assay with UO-31, in the assay with M14, in the assay on NCI-H23, with PC-3, with ACHN and in the assay with MDA-MB-231 was > 100 µM (inactive) each time. Further, the GI50 in the assay on OVCAR-4 and with CCRF-CEM was > 100 µM (inactive) each time.
Take `COc1cc(OC)c2c(O)c3c(cc2c1)CC(C)(C)CC3=O`: the GI50 was > 100 µM (inactive) in the assay with OVCAR-8; > 100 µM (inactive) in the assay with NCI-H460; 90.6 µM (inactive) with UACC-62; > 67.3 µM (inactive) in the assay with 786-0; > 100 µM (inactive) in the assay on A498; > 100 µM (inactive) in the assay with SF-539. Also, the GI50 in the assay with BT-549 is > 100 µM (inactive); in the assay with NCI-H226, > 100 µM (inactive); with SR, > 26.7 µM (inactive); with HOP-62 it was 97.3 µM (inactive); in the assay with Malme-3M, 48.5 µM (inactive); with EKVX, > 100 µM (inactive). The GI50 with UO-31, in the assay on M14, with NCI-H23, in the assay on PC-3, in the assay with ACHN and with MDA-MB-231 was > 100 µM (inactive) throughout. For the same compound, the GI50 in the assay with OVCAR-4 was 32.1 µM (inactive); in the assay on CCRF-CEM it was > 63.1 µM (inactive).
In the case of `N/N=C(\c1nc2ccc([N+](=O)[O-])cc2nc1O)C(O)c1ccc(Cl)c(Cl)c1` (stereo not given), the GI50 was > 100 µM (inactive) in the assay on OVCAR-8; 82.4 µM (inactive) with NCI-H460; > 100 µM (inactive) in the assay with UACC-62; > 100 µM (inactive) with 786-0; > 100 µM (inactive) in the assay with A498; > 100 µM (inactive) in the assay with SF-539. Besides, the GI50 with BT-549 was > 100 µM (inactive); with NCI-H226, > 100 µM (inactive); with SR, 61.5 µM (inactive); in the assay with HOP-62, > 100 µM (inactive); in the assay with Malme-3M it was > 100 µM (inactive); with EKVX, > 100 µM (inactive). Besides, the GI50 in the assay on UO-31 is 26.7 µM (inactive); in the assay with M14, > 100 µM (inactive); in the assay on NCI-H23 it was > 100 µM (inactive); with PC-3, > 100 µM (inactive); in the assay with ACHN, 54.1 µM (inactive); in the assay with MDA-MB-231 it was > 100 µM (inactive). Also, the GI50 in the assay on OVCAR-4 was > 100 µM (inactive); with CCRF-CEM it was 15.8 µM (inactive).
On to `CCOC(=O)C(NC(=O)CC)(Nc1ccc(S(=O)(=O)Nc2nc(C)cc(C)n2)cc1)C(F)(F)F` (stereo not given), for which the GI50 with OVCAR-8, in the assay with NCI-H460, in the assay with UACC-62, with 786-0, in the assay on A498 and in the assay with SF-539 was > 100 µM (inactive) each time. The GI50 with BT-549, in the assay with NCI-H226, in the assay with SR, with HOP-62, in the assay on Malme-3M and with EKVX was > 100 µM (inactive) each time. Also, the GI50 in the assay on UO-31, in the assay with M14, in the assay on NCI-H23, in the assay with PC-3, in the assay with ACHN and with MDA-MB-231 was > 100 µM (inactive) each time. Also, the GI50 in the assay with OVCAR-4 and in the assay on CCRF-CEM was > 100 µM (inactive) throughout.
As to `N#CS/C(C(Cl)=C(Cl)Cl)=C(/Cl)[N+](=O)[O-]`, the GI50 was 1.75 µM (inactive) in the assay on OVCAR-8; 13.7 µM (inactive) in the assay on NCI-H460; 4.26 µM (inactive) in the assay on UACC-62; 1.68 µM (inactive) in the assay on 786-0; 17.1 µM (inactive) with A498; 6.44 µM (inactive) in the assay on SF-539. The GI50 in the assay on BT-549 is 2.24 µM (inactive); in the assay with NCI-H226, 7.66 µM (inactive); with SR, 0.778 µM (active); in the assay with HOP-62, 15.4 µM (inactive); in the assay on Malme-3M it was 1.58 µM (inactive); in the assay with EKVX it was 4.46 µM (inactive). Further, the GI50 in the assay with UO-31 is 1.63 µM (inactive); in the assay on M14, 1.31 µM (inactive); in the assay with NCI-H23, 2.7 µM (inactive); in the assay with PC-3, 5.33 µM (inactive); in the assay on ACHN it was 1.64 µM (inactive); with MDA-MB-231 it was 3.1 µM (inactive). The GI50 in the assay on OVCAR-4 was 1.95 µM (inactive); with CCRF-CEM, 0.284 µM (active).
With `CC(O)C1(O)C(O)CC(OC2c3cc4c(c(O)c3[C@@H]3C[C@@]2(C)OC32C=c3cc[nH]c3=N2)C(=O)c2cccc(O)c2C4=O)OC1C` (stereo not given in full), the GI50 with OVCAR-8 is 0.959 µM (active); in the assay on NCI-H460, 0.401 µM (active); in the assay with UACC-62, 1.31 µM (inactive); in the assay on 786-0 it was 1.04 µM (active); in the assay with A498, 1.29 µM (inactive); in the assay on SF-539, 1.19 µM (inactive). Also, the GI50 in the assay on BT-549 is 5.56 µM (inactive); in the assay on NCI-H226, 0.701 µM (active); in the assay with SR, 0.287 µM (active); with HOP-62 it was 1.06 µM (active); in the assay with Malme-3M it was 0.938 µM (active); in the assay with EKVX, 1.11 µM (active). For the same compound, the GI50 with UO-31 is 1.77 µM (inactive); in the assay on M14, 1.34 µM (inactive); with NCI-H23 it was 1.53 µM (inactive); in the assay with PC-3, 1.23 µM (inactive); with ACHN, 0.759 µM (active); with MDA-MB-231, 1.06 µM (active). Besides, the GI50 with OVCAR-4 is 2.38 µM (inactive); with CCRF-CEM, 0.34 µM (active).
`C=C1C(=O)OC2/C=C(\CO)CC/C=C(\CO)CC(OC(=O)C(C)C)C12` (stereo not given): the GI50 with OVCAR-8 is 20 µM (inactive); in the assay on NCI-H460, 20.9 µM (inactive); in the assay with UACC-62 it was 14.1 µM (inactive); in the assay on 786-0 it was 5.52 µM (inactive); in the assay on A498 it was 21.6 µM (inactive); with SF-539, 14.9 µM (inactive). The GI50 with BT-549 was 7.94 µM (inactive); in the assay on NCI-H226, 16 µM (inactive); in the assay with SR, 4.79 µM (inactive); in the assay on HOP-62, 19.2 µM (inactive); in the assay with Malme-3M it was 2.08 µM (inactive); in the assay on EKVX it was 16.4 µM (inactive). Moreover, the GI50 was 14 µM (inactive) with UO-31; 7.53 µM (inactive) with M14; 19.3 µM (inactive) in the assay with NCI-H23; 16.6 µM (inactive) in the assay with PC-3; 1.95 µM (inactive) in the assay with ACHN; 20.1 µM (inactive) in the assay with MDA-MB-231. In addition, the figures for the GI50 in the assay on OVCAR-4 and in the assay on CCRF-CEM were 19.4 µM (inactive) and 2.99 µM (inactive), respectively.
`CC(=O)c1c2c(cc3c1CCC3)CCC2`: the GI50 was > 100 µM (inactive) in the assay on OVCAR-8; > 100 µM (inactive) with NCI-H460; > 100 µM (inactive) in the assay on UACC-62; > 100 µM (inactive) in the assay on 786-0; 36.5 µM (inactive) in the assay on A498; > 100 µM (inactive) in the assay with SF-539. Besides, the GI50 is > 100 µM (inactive) in the assay on BT-549; 82 µM (inactive) in the assay with NCI-H226; > 100 µM (inactive) with SR; > 100 µM (inactive) with HOP-62; > 100 µM (inactive) in the assay on Malme-3M; 63.5 µM (inactive) in the assay on EKVX. The GI50 in the assay with UO-31 is 54.5 µM (inactive); in the assay on M14, > 100 µM (inactive); with NCI-H23 it was > 100 µM (inactive); in the assay on PC-3, 55.3 µM (inactive); with ACHN, > 100 µM (inactive); with MDA-MB-231 it was > 100 µM (inactive). For the same compound, the GI50 in the assay on OVCAR-4 is 69.7 µM (inactive); with CCRF-CEM, 40.7 µM (inactive).
Regarding `CSc1ccccc1P(CCP(c1ccccc1SC)c1ccccc1SC)c1ccccc1SC`, the GI50 with OVCAR-8 was 8.73 µM (inactive); in the assay on NCI-H460 it was 3.13 µM (inactive); in the assay with UACC-62, > 86.5 µM (inactive); in the assay with 786-0 it was 15.6 µM (inactive); in the assay with A498 it was 40.4 µM (inactive); in the assay on SF-539, 34.1 µM (inactive). In addition, the GI50 in the assay on BT-549 is 38.7 µM (inactive); in the assay with NCI-H226 it was 10.4 µM (inactive); in the assay with SR, 1.11 µM (active); in the assay on HOP-62, 8.61 µM (inactive); with Malme-3M it was 29.9 µM (inactive); in the assay with EKVX, 19.6 µM (inactive). The GI50 in the assay on UO-31 was > 44.4 µM (inactive); with M14, 24.3 µM (inactive); in the assay on NCI-H23 it was 1 µM (active); in the assay on PC-3, 0.912 µM (active); in the assay with ACHN it was 47.2 µM (inactive); in the assay on MDA-MB-231 it was 8.81 µM (inactive). The GI50 was 14.3 µM (inactive) in the assay on OVCAR-4 and 0.953 µM (active) in the assay with CCRF-CEM.
